Patent US10160771B2, “Hepatitis C virus inhibitors and uses thereof in preparation of drugs” (priority 2014, dated 2018)

Legend:
[1] = Cell Titer-fluor cell activity assay in HCV-1b replicon cells (CC50); type: cell-based
Protocol: (§1) The EC50 and CC50 values of anti-HCV compounds were determined by HCV genotype 1a (HCV-1a) and 1B (HCV-1b) stable transfer replication (replicon) cells. The source of genotype 1a replicon is H77 clones containing K1691R, K2040R and S2204I adaptive mutations. The source of genotype 1b replicon is Con1 clones containing E1202G, T1280I and K1846T adaptive mutations.
(§2) HCV Replicon Cell Lines: HCV-1a and HCV-1b Cells
(§3) The compound powder was dissolved in 100% DMSO. Then the compound was diluted 5 times with 6 points, and added into the cell plate with Echo liquid handler. Ensure the final concentration of DMSO was 0.5%. Each compound was tested in double holes. Maximum initial concentration was 100, 10 or 1 nM, 5 times dilution, 6 points.
(§4) b) Cell Culture (HCV-1a or HCV-1b Replicon Cell):
(§5) 1) absorbing the culture supernatant of the cell culture and washing the cells with 10 mL PBS.
(§6) 2) adding preheated pancreatin to the washed cell culture flasks, rotating culture bottle to make the bottom of the culture bottle uniformly covered by pancreatin, then placed into 37° C., 5% CO2 incubator to digest.
(§7) 3) suspending cells in each T150 culture flask with 10-15 mL culture medium, absorbing 0.1 mL liquid and diluting 2 times by trypan blue solution as counted.
(§8) 4) diluting cells to 8×10^4/mL with the culture medium, adding the diluted cells into the compound-containing 96-well plate (Greiner, Cat.#655090) (100 μL/well, 8000 cells/well) with automatic liquid separator (Thermo Scientific). Then place into a 37° C., 5% CO2 incubator for 3 days. Cell control well: no compound, only containing 0.5% DMSO.
5) adding chemiluminescent substrate Cell Titer-fluor to the cell well, after incubation for 30 minutes, detecting the signal by chemiluminescence detection system Envison (Ex at 405 nm and read at 515 nm). The effect of the compounds on the activity of HCV replicon cells was analyzed according to the luminescence data, which was used to calculate the CC50 values.
(§9) The EC50 or CC50 values were obtained by nonlinear fitting analysis on inhibition percentage (inh %) data with GraphPad Prism software.

[2] = tested on: HCV genotype 1a (HCV-1a) replicon cells; test: HCV genotype 1a replicon luciferase assay (EC50); type: cell-based, hepatitis C virus genotype 1a (H77 clone); conditions: 3 days, luciferase (Bright-Glo)
Protocol: as §1
(§10) HCV 1a (HCV-1a) and 1b (HCV-1b) gene subtype replicon system contains the related HCV gene subtype non structural protein gene, G418 resistance gene NEO and luciferase gene, which results in that HCV related protein and luciferase can be stably expressed in cells. By detecting the level of expression of luciferase gene, the level of HCV replication can be determined. Therefore, the system is used as a model for screening the activity of anti-HCV compound in vitro.
as §2, §3, §4, §5, §6, §7, §8
(§11) 6) then adding luciferase luminescence substrate Bright-Glo, after incubation for 5 minutes, detecting the luciferase activity by chemical luminescence detection system Envison (wavelength>700 nm); analyzing the anti-HCV inhibitory activity of the compounds according to luciferase data, which was used to calculate EC50 values.
as §9

[3] = tested on: HCV genotype 1b (HCV-1b) replicon cells; test: HCV genotype 1b replicon luciferase assay (EC50); type: cell-based, hepatitis C virus genotype 1b (Con1 clone); conditions: 3 days, luciferase (Bright-Glo)
Protocol: as §1, §10, §2, §3, §4, §5, §6, §7, §8, §11, §9

COC(=O)N[C@H](C(=O)N1CCC[C@H]1c1ncc(-c2ccc(-c3ccc(-c4cnc([C@H]5C6CCC(C6)[C@@H]5C(=O)NC(C)c5cccnc5)[nH]4)cc3)cc2)[nH]1)C(C)C (single isomer, unassigned) [AA_204_A]
CC50 at 3 days [1]: > 1 nM | EC50 [2]: 0.101 to 1 nM | EC50 ([3]; Hepatitis C virus, 72 h): 0.001 to 0.1 nM

COC(=O)N[C@H](C(=O)N1CCC[C@H]1c1ncc(-c2ccc(-c3ccc(-c4cnc([C@H]5C6CCC(C6)[C@@H]5C(=O)NC(c5cccnc5)C(C)C)[nH]4)cc3)cc2)[nH]1)C(C)C (single isomer, unassigned) [AA_233_A]
CC50 at 3 days [1]: > 1 nM | EC50 [2]: 0.101 to 1 nM | EC50 [3]: 0.001 to 0.1 nM

COC(=O)N[C@H](C(=O)N1CCC[C@H]1c1ncc(-c2ccc(-c3ccc(-c4cnc(C5C6CCC(C6)[C@@H]5C(=O)N[C@H](C)c5cccnc5)[nH]4)cc3)cc2)[nH]1)[C@@H](C)OC (single isomer, unassigned) [AA_253_A]
CC50 at 3 days [1]: > 1 nM | EC50 ([2]; Hepatitis C virus, 72 h): 10 to 100 nM | EC50 [3]: 0.101 to 1 nM

COC(=O)N[C@H](C(=O)N1CCC[C@H]1c1ncc(-c2ccc(-c3ccc(-c4cnc(C5C6CCC(C6)[C@@H]5C(=O)NC(C)c5cnccn5)[nH]4)cc3)cc2)[nH]1)[C@@H](C)OC (single isomer, unassigned) [AA_281_A]
CC50 at 3 days [1]: > 1 nM | EC50 [2]: 0.101 to 1 nM | EC50 [3]: 0.001 to 0.1 nM

COC(=O)NC(C(=O)N1CCCC1c1[nH]c(-c2ccc(-c3ccc(-c4cnc([C@@H]5CCCN5C(=O)[C@@H](NC(=O)OC)C(C)C)[nH]4)cc3)cc2)c2c1CCC2)C1CCOC1 (single isomer, unassigned) [AG_025_A]
CC50 at 3 days [1]: > 10 nM | EC50 ([2]; Hepatitis C virus, 72 h): 10 to 100 nM | EC50 [3]: 0.001 to 0.1 nM

COC(=O)N[C@H](C(=O)N1CCCC1c1ccc(-c2ccc(-c3ccc(-c4cnc([C@@H]5CCCN5C(=O)[C@@H](NC(=O)OC)[C@@H](C)OC)[nH]4)cc3)cc2)[nH]1)[C@@H](C)OC (single isomer, unassigned) [AG_072_A]
CC50 at 3 days [1]: > 1 nM | EC50 [2]: 0.001 to 0.1 nM | EC50 [3]: 0.001 to 0.1 nM

COC(=O)NN(C(=O)[C@@H]1CCCCC1c1ncc(-c2ccc3cc(-c4ccc(-c5cnc(C6CCCC[C@@H]6C(=O)N(CC(=O)NC6CC6)C(C)C)[nH]5)cc4)ccc3c2)[nH]1)C(C)C (stereo partly shown) [AA_075]
CC50 at 3 days [1]: > 10 nM | EC50 ([3]; Hepatitis C virus, 72 h): 10 to 100 nM

COC(=O)NC(C(=O)N1CCCC1c1ncc(-c2ccc3cc(-c4cnc(C5CCCC[C@H]5C(=O)N(NC(=O)OC)C(C)C)[nH]4)ccc3c2)[nH]1)C1CCOC1 (stereo partly shown) [AA_078]
CC50 at 3 days [1]: > 10 nM | EC50 ([3]; Hepatitis C virus, 72 h): 10 to 100 nM

COC(=O)N[C@H](C(=O)N1CCC[C@H]1c1ncc(-c2ccc(-c3ccc(-c4cnc([C@@H]5CCCC[C@H]5C(=O)N(NC(=O)OC)C(C)C)[nH]4)cc3)cc2)[nH]1)C(C)C [AA_091_A]
CC50 at 3 days [1]: > 10 nM | EC50 ([3]; Hepatitis C virus, 72 h): 1 to 10 nM

COC(=O)N[C@H](C(=O)N1CCC[C@H]1c1ncc(-c2ccc(-c3ccc(-c4cnc([C@H]5CCCC[C@@H]5C(=O)N(NC(=O)OC)C(C)C)[nH]4)cc3)cc2)[nH]1)C(C)C [AA_091_B]
CC50 at 3 days [1]: > 10 nM | EC50 ([2]; Hepatitis C virus, 72 h): 10 to 100 nM | EC50 ([3]; Hepatitis C virus, 72 h): 0.101 to 1 nM

COC(=O)N[C@H](C(=O)N1CCC[C@H]1c1[nH]c(-c2ccc(-c3ccc4cc(-c5cnc(C6CCCC[C@@H]6C(=O)N(NC(=O)OC)C(C)C)[nH]5)ccc4c3)cc2)c2c1CCC2)C(C)C (stereo partly shown) [AA_094]
CC50 at 3 days [1]: > 10 nM | EC50 ([3]; Hepatitis C virus, 72 h): 10 to 100 nM

COC(=O)NC(C(=O)C1CCCCC1c1ncc(-c2ccc(-c3ccc(-c4[nH]c([C@@H]5CCCN5C(=O)[C@@H](NC(=O)OC)C(C)C)c5c4CCC5)cc3)cc2)[nH]1)C(C)C (stereo partly shown) [AA_100]
CC50 at 3 days [1]: > 10 nM | EC50 ([3]; Hepatitis C virus, 72 h): 10 to 100 nM

COC(=O)N[C@H](C(=O)N1CCC[C@H]1c1ncc(-c2ccc(-c3ccc(-c4cnc(C5CCCC[C@H]5C(=O)N(NC(=O)OC)C(C)C)[nH]4)cn3)cc2)[nH]1)C(C)C (stereo partly shown) [AA_108]
CC50 at 3 days [1]: > 10 nM | EC50 ([3]; Hepatitis C virus, 72 h): 1 to 10 nM

COC(=O)NC(C(=O)N1CCC[C@H]1c1ncc(-c2ccc(-c3ccc(-c4cnc(C5CCCC[C@@H]5C(=O)N(NC(=O)OC)C(C)C)[nH]4)cc3)cc2)[nH]1)C1CCOCC1 (stereo partly shown) [AA_109]
CC50 at 3 days [1]: > 100 nM | EC50 ([2]; Hepatitis C virus, 72 h): 10 to 100 nM | EC50 ([3]; Hepatitis C virus, 72 h): 0.101 to 1 nM

COC(=O)N[C@H](C(=O)N1CCC[C@H]1c1ncc(-c2ccc(-c3ccc(-c4cnc(C5CCCC[C@H]5C(=O)NCc5cccnc5)[nH]4)cc3)cc2)[nH]1)C(C)C (stereo partly shown) [AA_113]
CC50 at 3 days [1]: > 10 nM | EC50 ([2]; Hepatitis C virus, 72 h): 1 to 10 nM | EC50 ([3]; Hepatitis C virus, 72 h): 0.101 to 1 nM

COC(=O)N[C@H](C(=O)N1CCC[C@H]1c1ncc(-c2ccc(-c3ccc(-c4cnc(C5CCCC[C@@H]5C(=O)N(NC(=O)OC)C(C)C)[nH]4)cc3F)cc2)[nH]1)C(C)C (stereo partly shown) [AA_117]
CC50 at 3 days [1]: > 10 nM | EC50 ([2]; Hepatitis C virus, 72 h): 10 to 100 nM | EC50 ([3]; Hepatitis C virus, 72 h): 0.101 to 1 nM

COC(=O)N[C@H](C(=O)N1CCC[C@H]1c1ncc(-c2ccc(-c3ccc(-c4cnc(C5CCCC[C@@H]5C(=O)N(NC(=O)OC)C(C)C)[nH]4)c(F)c3)cc2)[nH]1)C(C)C (stereo partly shown) [AA_118]
CC50 at 3 days [1]: > 10 nM | EC50 ([3]; Hepatitis C virus, 72 h): 1 to 10 nM

COC(=O)N[C@H](C(=O)N1CCC[C@H]1c1ncc(-c2ccc(-c3ccc(-c4cnc(C5C6CCC(C6)[C@@H]5C(=O)N(NC(=O)OC)C(C)C)[nH]4)cc3)cc2)[nH]1)C(C)C (stereo partly shown) [AA_121_A]
CC50 at 3 days [1]: > 10 nM | EC50 ([2]; Hepatitis C virus, 72 h): 10 to 100 nM | EC50 ([3]; Hepatitis C virus, 72 h): 1 to 10 nM

COC(=O)N[C@H](C(=O)N1CCC[C@H]1c1ncc(-c2ccc(-c3ccc(-c4cnc(C5C6CCC(C6)[C@H]5C(=O)N(NC(=O)OC)C(C)C)[nH]4)cc3)cc2)[nH]1)C(C)C (stereo partly shown) [AA_121_B]
CC50 at 3 days [1]: > 10 nM | EC50 ([2]; Hepatitis C virus, 72 h): 1 to 10 nM | EC50 [3]: 0.001 to 0.1 nM

COC(=O)NC(C(=O)N1CCC[C@H]1c1ncc(-c2ccc(-c3ccc(-c4cnc(C5CCCC[C@@H]5C(=O)N(NC(=O)OC)C(C)C)[nH]4)cc3)cc2)[nH]1)C1CCOC1 (stereo partly shown) [AA_122]
CC50 at 3 days [1]: > 100 nM | EC50 ([2]; Hepatitis C virus, 72 h): 10 to 100 nM | EC50 ([3]; Hepatitis C virus, 72 h): 0.101 to 1 nM

COC(=O)N[C@H](C(=O)N1CCC[C@H]1c1ncc(-c2ccc(-c3ccc(-c4cnc(C5CCCC[C@@H]5C(=O)N(NC(=O)OC)C(C)C)[nH]4)cc3C(F)(F)F)cc2)[nH]1)C(C)C (stereo partly shown) [AA_127]
CC50 at 3 days [1]: > 10 nM | EC50 ([2]; Hepatitis C virus, 72 h): 10 to 100 nM | EC50 ([3]; Hepatitis C virus, 72 h): 0.101 to 1 nM

COC(=O)N[C@H](C(=O)N1CCC[C@H]1c1ncc(-c2ccc(-c3ccc(-c4cnc(C5CC(F)(F)C[C@H]5C(=O)N(NC(=O)OC)C(C)C)[nH]4)cc3)cc2)[nH]1)C(C)C (stereo partly shown) [AA_138]
CC50 at 3 days [1]: > 100 nM | EC50 ([2]; Hepatitis C virus, 72 h): 10 to 100 nM | EC50 ([3]; Hepatitis C virus, 72 h): 1 to 10 nM

COC(=O)N[C@H](C(=O)N1CCC[C@H]1c1ncc(-c2ccc(-c3ccc(-c4cnc([C@H]5CCCC[C@@H]5C(=O)NCc5cccnc5)[nH]4)cc3)cc2)[nH]1)C(C)C [AA_150_A]
CC50 at 3 days [1]: > 10 nM | EC50 ([2]; Hepatitis C virus, 72 h): 10 to 100 nM | EC50 ([3]; Hepatitis C virus, 72 h): 0.101 to 1 nM

COC(=O)N[C@H](C(=O)N1CCC[C@H]1c1ncc(-c2ccc(-c3ccc(-c4cnc([C@@H]5CCCC[C@H]5C(=O)NCc5cccnc5)[nH]4)cc3)cc2)[nH]1)C(C)C [AA_150_B]
CC50 at 3 days [1]: > 10 nM | EC50 ([2]; Hepatitis C virus, 72 h): 0.101 to 1 nM | EC50 ([3]; Hepatitis C virus, 72 h): 0.001 to 0.1 nM

COC(=O)N[C@H](C(=O)N1CCC[C@H]1c1[nH]c(-c2ccc(-c3ccc(-c4cnc(C5C6CCC(C6)[C@@H]5C(=O)N(NC(=O)OC)C(C)C)[nH]4)cc3)cc2)c2c1CCC2)C(C)C (stereo partly shown) [AA_155]
CC50 at 3 days [1]: > 100 nM | EC50 ([2]; Hepatitis C virus, 72 h): 10 to 100 nM | EC50 ([3]; Hepatitis C virus, 72 h): 1 to 10 nM

COC(=O)NC(C(=O)N1CCCC1c1[nH]c(-c2ccc(-c3ccc(-c4cnc(C5CCCC[C@@H]5C(=O)N(NC(=O)OC)C(C)C)[nH]4)cc3)cc2)c2c1CCC2)C1CCOCC1 (stereo partly shown) [AL_003]
CC50 at 3 days [1]: > 10 nM | EC50 ([3]; Hepatitis C virus, 72 h): 10 to 100 nM
